Test results reported in patent US4581451A, “Preparation of di- and tri-substituted xanthine compounds” (priority 1980, dated 1986).
Where two headings read alike, the source gives them in different places.

Experiments:
[1] = behavioural study in rats: anxiety induced by a new environment (rearings and movements); assay type: in vivo, male Sprague-Dawley rats; details: for ED50: Rattus norvegicus, 0.5 h
Text: The xanthines obtained in accordance with the preceding Examples were the subject of a behavioural study in rats as a function of the anxiety induced by a new environment. In rats, anxiety is manifested by rearing the animal on its two hind paws, whilst locomotive activity is expressed by their movements.
A state of anxiety is induced by confronting "naive" male Sprague-Dawley (Iffa-Credo, France) rats weighing from 260 to 300 g with a new environment in the form of cages of Macrolon (30×25 cm) which are situated in a sound-proofed air-conditioned room (22° C./50% relative humidity).
The number of rearings and movements is automatically determined by means of infrared photoelectric cells which only emit electrical pulses for the active movements of the animal and not for its static movements, such as those of its head and tail, for reasons of reproducibility. These photoelectric cells scan the cages at two different levels so as to distinguish the standing-up movements from the other movements. The number of rearings and movements is counted by the two rows of photoelectric cells, memorised and read out using a printer in accordance with a pre-established program.
The tested compound in solution in the form of its sodium salt is orally administered by oesophagus probe (the reference administration being formed by 6 ml/kg of distilled water) 30 minutes before the animals are placed in the cages. The number of rearings and movements is determined during the 15 minutes after they have been put into the cages in relation to the effect generated by the reference administration.
The ED 50 dose (expressed in mg/kg), i.e. the quantity of substance required to bring about a 50% variation in the motive activity in relation to the reference administration, is determined from the development of the effects of the tested substances on the number of movements and rearings as a function of the progressive doses administered expressed as a percentage of the movements and rearings counted for the reference administration.
The gradients of the regression curves corresponding to the movements and to the rearings are compared by recording the value of the gradient of the movement curve on the abscissa (d) and the value of the gradient of the rearing curve on the ordinant (r) of a system of rectungular axes.
The ratio of the gradient of the movements to that of the rearings is also determined, enabling the specificity of effect of a given substance on the anxiety state to be assessed.
The effect of a substance is determined by its position relative to the curve d=r of gradient=1. The substances situated on this curve have a similar effect on the rearings and movements, being sedatives with a non-specific effect (S.N.). For these compounds, the ED 50 value quoted corresponds to the mean taken from the two regression curves.
These compounds are sedatives of anxiolytic character (S.A.). In this case, the ED 50 value is calculated from the regression curve of the rearings.

[2] = base screening: diuretic in male rats; assay type: in vivo; details: Rattus norvegicus, read-out: minimal effective dose producing a significant response, diuretic (c)
Text: (c) diuretic in male rats, as determined in accordance with W. L. Lipschitz, Z Hadidian and A. Kerpcsar, JPET, Vol. 79, pages 97-110, 1943

[3] = base screening: anti-allergic in male and female rats; assay type: in vivo; details: for minimal effective dose: Rattus norvegicus, read-out: minimal effective dose producing a significant response, anti-allergic (d)
Text: (d) anti-allergic in male and female rats, as determined in accordance with J. Goose and A. M. J. N. Blair, Immunol., Vol. 16, pages 749-760, 1969

[4] = base screening: bronchodilatory in vitro
Text: (e) bronchodilatory in vitro as determined in accordance with F. P. Luduena et al., Arch. int. Pharmacodyn, Vol. 111, pages 392-400, 1957

[5] = base screening: anti-histamine in vitro
Text: (f) anti-histamine in vitro as determined in accordance with R. Magnus, Arch f.d., ges. physiol., Vol. 102, pages 123-151, 1904.

[6] = catalepsy induced by haloperidol in rats; assay type: in vivo; details: p.o.
Text: (§1) The compounds of Examples 1, 4, 11 and 12 were subjected to behavioural tests in accordance with "predictability and specificity of behaviour screening tests for neuroleptics", P. Worms and K. G. Lloyd, […], Vol. 5, pages 445-450, 1979, comprising: […]

[7] = analgesia induced by pentobarbital in mice; assay type: in vivo; details: p.o.
Text: as §1

[8] = climbing behaviour induced by apomorphine in mice; assay type: in vivo; details: p.o.
Text: as §1

[9] = stereotype behaviour induced by apomorphine in rats; assay type: in vivo; details: p.o.
Text: as §1

[10] = rectal temperature in mice; assay type: in vivo; details: p.o.
Text: as §1

[11] = hypomotility induced by amphetamine in rats; assay type: in vivo; details: p.o.
Text: as §1

in vivo [12] = details: rat, po, solution in DMSO
Text: (b) Determination of the acute toxicity LD 50 in male and female rats in solution is DMSO (reference DMSO alone) in accordance with C.

in vivo [13] = details: mouse, po, solution in DMSO
[14] = oral, sodium salt in solution, 30 min before test, 15 min count, S.N.: mean of two regression curves, S.A.: from rearings curve, read-out: ED 50
[15] = female, read-out: LD 50, rats female
[16] = male, read-out: LD 50, rats male
[17] = female, read-out: LD 50, mice female
[18] = male, read-out: LD 50, mice male

In the case of `CCCCn1c(=O)c2[nH]c(C)nc2n(CCC)c1=O` [Example 13, 1-butyl-3-propyl-8-methyl xanthine], the ED50 [1, 14] is reported as 1.05 mg/kg.
Compound `Cc1nc2c([nH]1)c(=O)n(CC(C)C)c(=O)n2CC(C)C` [Example 15, 1,3-diisobutyl-8-methyl xanthine] has an ED50 [1, 14] of 0.42 mg/kg.
With `CCCCn1c(=O)n(C(C)C)c(=O)c2[nH]c(C)nc21` [Example 16, 1-isopropyl-3-butyl-8-methyl xanthine] the ED50 [1, 14] was 1.76 mg/kg.
In the case of `C=CCn1c(=O)c2[nH]cnc2n(CC(C)C)c1=O` [Example 3, 1-allyl-3-isobutyl xanthine], the ED50 [1, 14] is reported as 0.98 mg/kg, the minimal effective dose [2] is reported as 5 mg/kg and the “minimal effective dose producing a significant response, anti-allergic (d)” value [3] is reported as “no effect”. For the same compound, the “minimal effective concentration producing a significant response, bronchodilatory (e)” value [4] was “no effect” and the “minimal effective concentration producing a significant response, anti-histamine (f)” value [5] was 200 µg/mL.
For `C=CCn1c(=O)c2[nH]c(C)nc2n(CCC)c1=O` [Example 6, 1-allyl-3-propyl-8-methyl xanthine], the ED50 [1, 14] was 0.27 mg/kg.
`CN(C)CCCN1c2ccccc2Sc2ccc(Cl)cc21` [chlorpromazine, reference compound] showed an ED50 ([1]; po) of 21 mg/kg.
In the case of `Cn1c(=O)c2[nH]cnc2n(C)c1=O` [theophylline, reference compound], the action profile ([1]; conclusion from Table 3) is reported as “psychostimulating” and the “effect on the anxiety state” value ([1]; conclusion from Table 3) is reported as “does not have any effect on the anxiety state”.
For `C=CCn1c(=O)c2[nH]c(CC)nc2n(CCCC)c1=O` [Example 5, 1-allyl-3-butyl-8-ethyl xanthine], the ED50 [1, 14] was 6.24 mg/kg, the minimal effective dose [2] was 2.5 mg/kg and the “minimal effective dose producing a significant response, anti-allergic (d)” value [3] was “no effect”. The “minimal effective concentration producing a significant response, bronchodilatory (e)” value [4] was 5 µg/mL and the “minimal effective concentration producing a significant response, anti-histamine (f)” value [5] was 100 µg/mL.
With `C=CCn1c(=O)n(CCCC)c(=O)c2[nH]c(C)nc21` [Example 10, 1-butyl-3-allyl-8-methyl xanthine] the ED50 [1, 14] was 3.95 mg/kg.
With `CCCCn1c(=O)n(CC)c(=O)c2[nH]c(CC)nc21` [Example 9, 1,8-diethyl-3-butyl xanthine] the ED50 [1, 14] was 2.38 mg/kg, the minimal effective dose [2] was 5 mg/kg and the “minimal effective dose producing a significant response, anti-allergic (d)” value [3] was “no effect”. The “minimal effective concentration producing a significant response, bronchodilatory (e)” value [4] was 25 µg/mL and the “minimal effective concentration producing a significant response, anti-histamine (f)” value [5] was 50 µg/mL.
For `C=CCn1c(=O)c2[nH]c(C)nc2n(CCCC)c1=O` [Example 1, 1-allyl-3-butyl-8-methyl xanthine], the ED50 ([1]; po) was 0.14 mg/kg, the minimal effective dose [2] was 5 mg/kg and the minimal effective dose [3] was 2.5 mg/kg. The “minimal effective concentration producing a significant response, bronchodilatory (e)” value [4] was 100 µg/mL, the “minimal effective concentration producing a significant response, anti-histamine (f)” value [5] was 100 µg/mL and the “catalepsy induced by haloperidol” value [6] was “potentialisation at 1 mg/kg p.o”. For the same compound, the “analgesia induced by pentobarbital” value [7] was “potentialisation at 0.5 mg/kg p.o”, the “climbing behaviour induced by apomorphine” value (from here on “climbing behaviour induced”) [8] was “inhibition at 1 mg/kg p.o” and the “stereotype behaviour induced by apomorphine” value (“stereotype behaviour induced” for short) [9] was “no antagonism up to 8 mg/kg p.o”. For the same compound, the rectal temperature [10] was “hypothermal effect at 2 mg/kg p.o” and the “hypomotility induced by amphetamine” value [11] was “antagonism at 0.5 mg/kg p.o”.
For `CCCn1c(=O)c2[nH]c(C)nc2n(CC(C)C)c1=O` [Example 12, 1-propyl-3-isobutyl-8-methyl xanthine], the ED50 [1, 14] was 0.25 mg/kg, the LD50 (in vivo [12]; [15]) was 19 mg/kg and the LD50 (in vivo [12]; [16]) was 28 mg/kg. The “catalepsy induced by haloperidol” value [6] was “potentialisation at 1 mg/kg p.o”, the “analgesia induced by pentobarbital” value [7] was “potentialisation at 0.5 mg/kg p.o” and the “climbing behaviour induced” value [8] was “inhibition at 1 mg/kg p.o”. For the same compound, the “stereotype behaviour induced” value [9] was “no antagonism up to 8 mg/kg p.o”, the rectal temperature [10] was “hypothermal effect at 2 mg/kg p.o” and the “hypomotility induced by amphetamine” value [11] was “antagonism at 0.5 mg/kg p.o”.
For `CCCCn1c(=O)n(CCC)c(=O)c2[nH]c(C)nc21` [Example 11, 1-propyl-3-butyl-8-methyl xanthine], the ED50 [1, 14] was 0.35 mg/kg, the LD50 (in vivo [13]; [17]) was 151 mg/kg and the LD50 (in vivo [13]; [18]) was 91 mg/kg. The LD50 (in vivo [12]; [15]) was 15 mg/kg, the LD50 (in vivo [12]; [16]) was 25 mg/kg and the minimal effective dose [2] was 0.25 mg/kg. For the same compound, the “minimal effective dose producing a significant response, anti-allergic (d)” value [3] was “no effect”, the “minimal effective concentration producing a significant response, bronchodilatory (e)” value [4] was 10 µg/mL and the “minimal effective concentration producing a significant response, anti-histamine (f)” value [5] was 50 µg/mL. The “catalepsy induced by haloperidol” value [6] was “potentialisation at 1 mg/kg p.o”, the “analgesia induced by pentobarbital” value [7] was “potentialisation at 0.5 mg/kg p.o” and the “climbing behaviour induced” value [8] was “inhibition at 1 mg/kg p.o”. The “stereotype behaviour induced” value [9] was “no antagonism up to 8 mg/kg p.o”, the rectal temperature [10] was “hypothermal effect at 2 mg/kg p.o” and the “hypomotility induced by amphetamine” value [11] was “antagonism at 0.5 mg/kg p.o”.
Compound `C=CCn1c(=O)c2[nH]c(C)nc2n(CCC(C)C)c1=O` [Example 7, 1-allyl-3-isopentyl-8-methyl xanthine] has an ED50 [1, 14] of 1.03 mg/kg.
`CCCCn1c(=O)n(CC)c(=O)c2[nH]c(C)nc21` [Example 8, 1-ethyl-3-butyl-8-methyl xanthine] showed an ED50 [1, 14] of 1.02 mg/kg.
Work on `O=C(CCCN1CCC(O)(c2ccc(Cl)cc2)CC1)c1ccc(F)cc1` [haloperidol, reference compound] yielded an ED50 ([1]; po) of 1 mg/kg.
For `CNC1=Nc2ccc(Cl)cc2C(c2ccccc2)=[N+]([O-])C1` [chlordiazepoxide, reference compound], the ED50 ([1]; po) was 12 mg/kg.
With `C=CCn1c(=O)c2[nH]cnc2n(CCCC)c1=O` [Example 2, 1-allyl-3-butyl xanthine] the ED50 [1, 14] was 1.6 mg/kg, the LD50 (in vivo [12]; [15]) was > 200 mg/kg and the LD50 (in vivo [12]; [16]) was > 200 mg/kg. For the same compound, the minimal effective dose [2] was 10 mg/kg, the minimal effective dose [3] was 10 mg/kg and the “minimal effective concentration producing a significant response, bronchodilatory (e)” value [4] was 25 µg/mL. For the same compound, the “minimal effective concentration producing a significant response, anti-histamine (f)” value [5] was 100 µg/mL.
Compound `CCCn1c(=O)c2[nH]c(C)nc2n(CCC)c1=O` [Example 14, 1,3-dipropyl-8-methyl xanthine] has an ED50 [1, 14] of 0.37 mg/kg.
In the case of `C=CCn1c(=O)c2[nH]c(C)nc2n(CC(C)C)c1=O` [Example 4, 1-allyl-3-isobutyl-8-methyl xanthine], the ED50 [1, 14] is reported as 0.25 mg/kg, the Effect ([1]; sedative/anxiolytic class) is reported as “S.N” and the LD50 (in vivo [13]; [17]) is reported as 49 mg/kg. For the same compound, the LD50 (in vivo [13]; [18]) was 79 mg/kg, the LD50 (in vivo [12]; [15]) was 17 mg/kg and the LD50 (in vivo [12]; [16]) was 23 mg/kg. The minimal effective dose [2] was 20 mg/kg, the minimal effective dose [3] was 50 mg/kg and the “minimal effective concentration producing a significant response, bronchodilatory (e)” value [4] was “no effect”. For the same compound, the “minimal effective concentration producing a significant response, anti-histamine (f)” value [5] was “no effect”, the “catalepsy induced by haloperidol” value [6] was “potentialisation at 1 mg/kg p.o” and the “analgesia induced by pentobarbital” value [7] was “potentialisation at 0.5 mg/kg p.o”. The “climbing behaviour induced” value [8] was “inhibition at 1 mg/kg p.o”, the “stereotype behaviour induced” value [9] was “no antagonism up to 8 mg/kg p.o” and the rectal temperature [10] was “hypothermal effect at 2 mg/kg p.o”. For the same compound, the “hypomotility induced by amphetamine” value [11] was “antagonism at 0.5 mg/kg p.o”.
